From patent publication US10274488B2, “Glycan arrays on PTFE-like aluminum coated glass slides and related methods” (Academia Sinica, priority 2008, dated 2019) come the findings set out here.

One experiment concerns cellulase from T. reesei. Nature of the experiment: Enzymatic hydrolysis in solution with cellulase from T. reesei, MS-TOF readout. It counts as biochemical, Trichoderma reesei. As to conditions: reaction in solution. The protocol:
Enzymatic hydrolysis of the immobilized poly-fluorinated cellobiose 8 (see FIG. 14) was first conducted in situ on the phosphonic acid slide surface. Three commercially available cellulases, Aspergillus niger (A. niger), Trichoderma reesei (T. reesei), and Trichoderma viride (T. viride) were prepared separately at 5 U/mL in a sodium acetate (25 mM) buffer solution (pH 5) and loaded onto the functionalized slide which has been divided into 16 wells using Fast Frame reaction chambers. For comparison, an aliquot of enzyme solution (100 μL) was added to the solution of fluorinated cellobiose (100 μL of 0.5 mM) in eppendorfs to carry out the enzymatic hydrolysis reactions in solution. After the reaction, it was transferred to the empty wells of the same slide. Each well was rinsed separately three times with de-ionized water and the slide was dried again under high vacuum before subjecting to MS-TOF analysis.
Under MS-TOF analysis, the clean background baseline allowed calculation of the percentage of hydrolyzed components for each sample. As shown in the MS-TOF results in FIG. 20, percentages of hydrolyzed products are calculated from the peak intensities of each spectrum. According to implementations of experimental data shown in FIG. 20, MS-TOF data of enzymatic hydrolysis of poly-fluorinated cellobiose in solution in FIG. 20A and immobilized on PTFE-like ACG slide in FIG. 20B. The control are the same experimental conditions run without enzymes in (a); (b), (c), and (d) are experimental conditions with the cellulase proteins from A. niger (b), T. reesei (c), and T. viride (d).
(§1) Cellulase was prepared (5 U/mL in 25 mM pH 5.05 NaOAc buffer solution). Substrate was also dissolved in NaOAc buffer solution (25 mM, pH 5.05) to give 0.5 mM substrate solution. Add 100 uL cellulase solution to 100 uL substrate solution in eppendorf to have a 2.5 U/mL cellulase solution with 0.25 mM substrate. This solution was incubated in 37° C. for 18 hours. Add 100 μL incubated solution onto the slide loaded in FAST® Frame. Put the slide in dry box to remove the water, and then use high vacuum to remove trace water. 100 μL water was used to rinse each well of the FAST® Frame multi-slide plate to solve and remove the salt of the buffer solution. Remove any residual water on the plate by high vacuum and then analyzed the slide by MALDI-TOF Ultra-Flex II.

The subject of the next experiment is endoglucanase 44A. Nature of the experiment: Enzymatic hydrolysis in solution with purified endoglucanase 44A, MS-TOF assay. It counts as biochemical, Clostridium thermocellum. The settings on record: reaction in solution. The protocol: To verify, the exoglucanases (L3) and endoglucanase (44A) were prepared according methods well known in the literature with minor modifications. First, enzymatic hydrolysis reactions were conducted in solution with the purified enzymes using substrates 8, 9 and 10. At the completion of the reaction, the solution mixtures were transferred to the PTFE-like ACG slide, and prepared by using the same washing procedures before being subjected to MS-TOF assay.
For each carbohydrate, a specific enzyme was added: (a) is the control run without enzymes, (b) is exoglucanase L3, and (c) is endoglucanase 44A. […]
as §1
The genomic DNA of Sulfolobus solfataricus (ATCC 35092) and Clostridium thermocellum (ATCC 27405) were obtained from the ATCC biological resource center. The Sso7d (NCBI accession number: AAK42090) gene fragment was amplified directly from the Sulfolobus solfataricus genome by polymerase chain reaction (PCR) with forward 5′ […] 3′ (SEQ ID NO: 1) and reverse 5′ […] 3′ (SEQ ID NO: 2) primers. The PCR product encoding Sso7d was digested with NdeI and BamHI and subsequently cloned into expression vector pET-28a (Novagen) to generate pET-28-Sso7d. […]

`O=C(NCCCCCO[C@@H]1O[C@H](CO)[C@@H](O[C@@H]2O[C@H](CO)[C@@H](O[C@@H]3O[C@H](CO)[C@@H](O)[C@H](O)[C@H]3O)[C@H](O)[C@H]2O)[C@H](O)[C@H]1O)OCCCC(F)(F)C(F)(F)C(F)(F)C(F)(F)C(F)(F)C(F)(F)C(F)(F)C(F)(F)C(F)(F)F` [Compound 9, [(4,4,5,5,6,6,7,7,8,8,9,9,10,10,11,11,12,12,12-nonadecafluorododecoxycarbonyl-amino)pentyl] ß-D-glucopyranosyl-(1→4)-ß-D-glucopyranosyl-(1→4)- -ß-D-glucopyranoside]: the “Hydrolysis of the substrate by the enzyme from T. reesei compared with the enzymes from the other two species (in words)” value in the experiment with cellulase from T. reesei was “most efficiently”. Further, the “Cleavage of the substrate by endoglucanase 44A (in words)” value in the experiment on endoglucanase 44A is given as “can't accept”.

On to `O=C(NCCCCCO[C@@H]1O[C@H](CO)[C@@H](O[C@@H]2O[C@H](CO)[C@@H](O)[C@H](O)[C@H]2O)[C@H](O)[C@H]1O)OCCCC(F)(F)C(F)(F)C(F)(F)C(F)(F)C(F)(F)C(F)(F)C(F)(F)C(F)(F)F` [Compound 8, [(4,4,5,5,6,6,7,7,8,8,9,9,10,10,11,11,12,12,12-nonadecafluorododecoxycarbonyl-amino)pentyl] ß-D-cellobioside], for which, in the experiment on cellulase from T. reesei (T. reesei cellulase, pH 5), the “Biose (un-hydrolyzed cellobiose), percentage of hydrolyzed pattern” value turned out to be 7%; the “F-tail, percentage of hydrolyzed pattern” value worked out at 0%; the “Glucose, percentage of hydrolyzed pattern” value is listed as 93%; the “Triose, percentage of hydrolyzed pattern” value is on record as 0/0%. In addition, the “Cleavage of the substrate by endoglucanase 44A (in words)” value in the experiment on endoglucanase 44A was “can't accept”.
